The text below walks through data of publication PMC8952364, “Polyphenols as Inhibitors of Antibiotic Resistant Bacteria—Mechanisms Underlying Rutin Interference with Bacterial Virulence” (Pharmaceuticals, 2022).

Each structure is given as a SMILES string. Converted amounts (≈) assume the structure as drawn.

Experiment [1] deals with P. aeruginosa IBRS P001 rhamnolipid production. Briefly: Rhamnolipid assay. In kind it is cell-based, Pseudomonas aeruginosa. Conditions: 0.25 mg/mL (0.5 MIC), compared to the control. The protocol:
Culture supernatants of the previously cultivated P. aeruginosa IBRS P001 strain incubated with rutin 0.250 mg/mL were acidified by using HCl to pH 2.0 [72]. Rhamnolipid production was measured spectrophotometrically at 570 nm by a Plate Reader Infinite 200 pro (MTX Lab Systems, Vienna, VA, USA). A solvent treated culture supernatant was used as a positive control.

In experiment [2] the test system is P. aeruginosa IBRS P001 biofilm. Briefly: Congo red binding assay, exopolysaccharide production (biofilm formation). The class given is cell-based, Pseudomonas aeruginosa. The protocol:
The estimation of rutin’s impact on biofilm exopolysaccharide production (EPS) was determined by the Congo red binding assay. P. aeruginosa IBRS P001 biofilm EPS production was determined as previously described. […] The planktonic cells were removed, and the adherent cells were washed with PBS. Wells were stained with 1% (w/v) Congo red (SigmaAldrich, Germany) in the dark for 30 min. Wells were aspirated and subsequently the bound dye was solubilized with 200 μL DMSO. Absorbance at 490 nm was measured in a microtiter plate reader Multiskan™ FC microplate photometer (Thermo Scientific™, United States) and the inhibition percentage of EPS production was calculated according to the following equation:%Inhibition = [(A490control − A490sample)/A490control] × 100
With A490control representing the absorbance of the untreated biofilm and A490sample the absorbance of the rutin treated sample. The solvent treated sample was used as the control.

In experiment [3] the test system is 24 h old P. aeruginosa IBRS P001 biofilms. Put plainly: Biofilm eradication, eDNA assay. In kind it is cell-based, Pseudomonas aeruginosa. Conditions: MBC–4 MBC, Figure 5D. The procedure:
(§1) The quantity of eDNA was determined as previously described, with some modifications. […] Subsequently, the planktonic cells were removed, and the wells were washed with PBS. TE buffer (Tris-EDTA buffer solution) was added to the wells and content was mixed vigorously by pipetting. The samples were transferred to 1.5 mL tubes and centrifuged at 10,000× g for 10 min. After removal of the supernatant, the pellet was suspended in a TE buffer by vortexing. Absorbance of the supernatant (260 nm) was measured after centrifugation at 10,000× g for 15 min. We calculated the inhibition percentage of eDNA relative to an untreated control. The solvent treated sample was used as the control.
The bacterial cells were incubated in TSB enriched with 2% glucose in 96-well plates (Sarstedt, Germany) with adhesive bottom at 37 °C for 24 h. After incubation, wells were washed with PBS, and rutin (MBC–4 MBC) in TSB with 2% glucose was added. Incubation continued at 37 °C for another 24 h. The planktonic cells were removed.
The assays continued as described above for the crystal violet antibiofilm assay for the measurement of biofilm mass, biofilm MTT assay for the interference with cell viability, Congo red binding assay for estimation of exopolysaccharide production, and eDNA assay.

The next experiment relates to K. pneumoniae IT977. Briefly: Antimicrobial microdilution assay (MIC/MBC). The class given is cell-based, Klebsiella pneumoniae. The following applies: Klebsiella pneumoniae, IT977. An outline of the steps: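 Broth microdilution with 0.5 McFarland suspension diluted twenty-fold and mixed 1:10 with compound (0.0039–1 mg/mL, from 30% ethanol stocks); 24 h at 37 °C. Triplicate runs.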
A general note: Dilution methods test growth across graded concentrations, often in twofold steps.

For experiment [4], the system named is P. aeruginosa IBRS P001 biofilm. Briefly: Crystal violet antibiofilm assay (biofilm formation). Conditions: 24 h. In kind it is cell-based, Pseudomonas aeruginosa. An outline of the steps:
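After incubation, biofilms were washed with PBS (pH 7.4), methanol-fixed and stained 30 min with 0.1% crystal violet. Stain was solubilised in 96% ethanol and read at 620 nm. Values are biofilm-forming capacity (%) relative to control.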

Experiment [5] concerns P. aeruginosa IBRS P001 pyocyanin production. Briefly: Pyocyanin assay. The class given is cell-based, Pseudomonas aeruginosa. The following applies: 0.25 mg/mL (0.5 MIC), compared to the control. The protocol:
Pyocyanin extraction from the culture supernatant was performed using chloroform in a 1:2 ratio [71]. The second extraction of the chloroform phase was done by 0.2 N HCl (3:1 ratio). The pyocyanin concentration was evaluated by recording the absorbance at 520 nm using a Plate Reader Infinite 200 pro (MTX Lab Systems, Vienna, VA, USA). The pyocyanin concentration was calculated by multiplication of the absorbance (A520) by 17.072. A solvent-treated culture supernatant was used as a positive control.

Another experiment concerns EPS production. Also noted: method as in doi:10.1016/j.foodcont.2018.02.044. The following applies: 200 µg/mL of rutin; cited from earlier work.
Experiment [6] relates to P. aeruginosa IBRS P001 biofilm. Briefly: Quantification of eDNA (biofilm formation). In kind it is cell-based. Conditions: Pseudomonas aeruginosa, IBRSP001BIOFILM; 0.25 MIC, 0.125 mg/mL; read-out: inhibition of eDNA levels. The protocol:
as §1

The test system is the same in experiment [7]. Put plainly: Biofilm MTT assay (biofilm formation). In kind it is cell-based, Pseudomonas aeruginosa. Conditions: rutin MIC, co-incubation 24 h. The procedure:
The impact of rutin on P. aeruginosa IBRS P001 biofilm formation was determined as previously described by estimating the metabolic activity of microbial cells using an MTT assay. […] The supernatants were then ejected and the biofilms washed with PBS. MTT reagent (200 μL, 0.5 mg/mL) was added and the plate was incubated at 37 °C in the dark for 2 h. The resulting dye was dissolved in DMSO and the absorbance was measured at 570 nm in a microtiter plate reader Multiskan™ FC Microplate Photometer, Thermo Scientific™. The inhibition percentage of biofilm cell viability was calculated:%Inhibition = [(A570control − A570sample)/A570control] × 100
With A570control representing the absorbance of untreated sample, and A570sample representing the absorbance of the rutin treated sample. A solvent-treated sample was used as the control.
(In general: Formazan colour is commonly taken as a measure of viable cells.)

A word on the inhibition: it is the relative decrease from the control value, in per cent. What is called MIC is the lowest concentration found to suppress growth. Broadly, the MBC is the smallest concentration meeting the test's criterion for killing.

For `C[C@@H]1O[C@@H](OC[C@H]2O[C@@H](Oc3c(-c4ccc(O)c(O)c4)oc4cc(O)cc(O)c4c3=O)[C@H](O)[C@@H](O)[C@@H]2O)[C@H](O)[C@H](O)[C@H]1O` [Rutin, rutin], the “decrease of rhamnolipid production” value in experiment [1] is 74.4%. In addition, the “exopolysaccharide level, % of production compared to vehicle treated control” value in experiment [2] (0.25 MIC) was determined as 72%; in [2] (0.5 MIC), 56%; in experiment [2] (MIC) it was 50%. For the same molecule, the inhibition at 250 µg/mL in [2] (Pseudomonas aeruginosa, IBRSP001BIOFILM, read-out: inhibition of produced exopolysaccharides) was determined as 44%. Moreover, the “levels of eDNA in the biofilm matrix, in words” value in [3] is “significantly reduced”. The MIC with K. pneumoniae IT977 (37 °C, 24 h, read-out: MIC) was determined as 1000 µg/mL (≈ 1640 µM). In addition, in the experiment with K. pneumoniae IT977 (subcultivation, 24 h at 37 °C, read-out: MBC), the MBC worked out at 1000 µg/mL (≈ 1640 µM). Besides, the “reduction of biofilm formation (biomass), in words” value in experiment [4] (MIC and sub-MIC, crystal violet, Figure 1) is “significant (****, p < 0.0001) reduction”. For the same molecule, in [4] (MIC, 500 µg/mL), the “biofilm biomass formed after treatment” value amounted to 6%. This molecule showed an inhibition at 500 µg/mL in experiment [4] (Pseudomonas aeruginosa, IBRSP001BIOFILM, 500 µg/mL (MIC)) of 94%. Besides, the “decrease of pyocyanin production” value in experiment [5] worked out at 82.1%. Moreover, the “inhibition of EPS production” value in the experiment on EPS production is given as “more than 40%”. Further, the inhibition at 125 µg/mL in experiment [6] was above 50%. In experiment [7], the “reduction of metabolic activity of cells forming the biofilm” value was found to be 88%.
